Reference: PubChem BioAssay (NCI)
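How tested: cells in 96-well plates exposed to compound for 48 hours at five concentrations. GI50 marks 50% less growth. At the TGI there is no net growth.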

Columns and labels:
Test in all cases: growth of human tumour cells (NCI), 48 h
[1] = test system: A498 renal
[2] = test system: SW-620 colon
[3] = test system: COLO 205 colon
[4] = test system: SN12C renal
[5] = test system: SK-OV-3 ovarian
[6] = test system: MCF7 breast
[7] = test system: MDA-MB-231 breast
[8] = test system: HOP-62 NSCLC
[9] = test system: A549 NSCLC
[10] = test system: PC-3 prostate

SMILES | GI50 [1] [µM] | TGI [1] [µM] | GI50 [2] [µM] | TGI [2] [µM] | GI50 [3] [µM] | TGI [3] [µM] | GI50 [4] [µM] | TGI [4] [µM] | GI50 [5] [µM] | TGI [5] [µM] | GI50 [6] [µM] | TGI [6] [µM] | GI50 [7] [µM] | TGI [7] [µM] | GI50 [8] [µM] | TGI [8] [µM] | GI50 [9] [µM] | TGI [9] [µM] | GI50 [10] [µM] | TGI [10] [µM]
O=C(COc1cccc(/C=C2\COc3ccc(Cl)cc3C2=O)c1)c1ccc(Cl)cc1 | 13.8 | 27.1 | 3.3 | 13 | 15 | 29.8 | 13.7 | 28.5 | 18.4 | 45.6 | 1.25 | 4.76 | 4.08 | 21.1 | 14.3 | 27.7 | 16.3 | 32.1 | 12.4 | 28.9
O=C(OCCBr)c1ccc(Cl)c([N+](=O)[O-])c1 | 17.7 | 42.4 | 14.6 | 30.2 | 16.8 | 31.5 | 17.1 | 33.2 | 17.2 | 31 | 2.51 | 7.5 | 8.3 | 21.6 | 1.91 | 3.63 | 17.7 | 35.4 | 5.23 | 12.8
CC12CC(OC(=O)[C@]1(C)O)[C@@H]([C@]1(O)CC[C@H]3[C@@H]4C[C@H]5O[C@]56[C@@H](O)C=CC(=O)[C@]6(C)[C@H]4CC[C@@]31C)C2 (stereo not given in full) | – | 33.2 | – | 12.4 | – | 10.7 | – | 20.5 | – | > 100 | – | 17.2 | – | 16.7 | – | > 100 | – | > 100 | – | 26.5
Nc1n[nH]c2cccc(C#Cc3cccc(C(=O)Nc4cc(CN5CCOCC5)cc(C(F)(F)F)c4)c3)c12 | 1.75 | 9.53 | 4.59 | 24.3 | 2.7 | 11.1 | 3.71 | 16.4 | 15.5 | 34.8 | 3.28 | 15.6 | 1.65 | 6.8 | 4.5 | 18.1 | 5.32 | 19.7 | 4.39 | 19
COc1cc(C2CC(c3ccc(N(C)C)cc3)=NN2C(C)=O)cc(OC)c1OC (stereo not given) | 2.18 | > 47.4 | 0.928 | > 100 | 3.06 | > 41.4 | 11.3 | > 100 | 5.46 | > 100 | 0.577 | > 100 | 4.74 | > 100 | 2.16 | > 100 | 3.36 | > 100 | 1.42 | > 100
COCCNc1cc(NC(=O)N2CCCc3cc(CN4CCN(C)CC4=O)c(C=O)nc32)ncc1C#N | > 50 | > 50 | > 50 | > 50 | 27.2 | > 50 | > 50 | > 50 | > 50 | > 50 | 40.4 | > 50 | 44.8 | > 50 | > 50 | > 50 | > 50 | > 50 | > 50 | > 50
CN(C(=O)c1ccncc1)c1ccccc1 | – | > 100 | – | > 100 | – | > 100 | – | > 100 | – | > 100 | – | > 100 | – | > 100 | – | > 100 | – | > 100 | – | > 100
Cn1ccnc1C(=O)/C=C/c1ccc(CC(=O)Nc2ccc(C(F)(F)F)cc2)cc1 | 4.17 | 11.8 | 4.17 | > 16.7 | 3.17 | 6.17 | 4.32 | > 16.7 | 6.6 | > 16.7 | 1.02 | 14.5 | 4.02 | 15.2 | > 16.7 | > 16.7 | 3.82 | 10.3 | 1.01 | 4.6
Nc1cc(N)c2nc(-c3ccccc3)c(NCc3ccc(F)cc3)nc2c1 | 16.8 | 31 | 2.21 | 9.52 | 2.53 | 6.18 | 7.5 | 23.7 | 12.9 | 26.4 | 2.99 | > 100 | 2.13 | 5.08 | 39.1 | > 100 | 17.6 | 34.9 | 3.5 | 15.6
CS(=O)(=O)Nc1ccc(N=Cc2c(O)[nH]c3ccccc23)cc1 | > 25 | > 25 | > 25 | > 25 | > 25 | > 25 | > 25 | > 25 | > 25 | > 25 | > 25 | > 25 | > 25 | > 25 | > 25 | > 25 | > 25 | > 25 | > 25 | > 25
CN(C)CC1CCCCCC(CN(C)C)C1=O (stereo not given) | 15.1 | 29.6 | 1.13 | 2.72 | 1.2 | 2.68 | 7.9 | 22.8 | 27.9 | > 93.6 | 2.85 | 15.3 | 8.68 | 23.8 | 13 | 27.3 | 14.7 | 30.7 | 8.71 | 24.2
Cc1[nH]c2ccccc2c1CCNCc1ccc(/C=C/C(=O)NO)cc1 | < 0.01 | 0.022 | < 0.01 | 0.0219 | < 0.0108 | 0.0218 | 0.0272 | 0.317 | 0.0134 | 0.0412 | < 0.01 | 0.795 | 0.0284 | 0.162 | < 0.0122 | 0.0697 | 0.0158 | 0.101 | < 0.0114 | 2.86
O=C(N/N=C/c1cc([N+](=O)[O-])ccc1O)c1cccc2ccccc12 | 2.71 | 29.3 | 3.7 | > 100 | 3.41 | 16.3 | 6.62 | > 100 | 4 | 33.3 | 2.49 | 13.4 | 7.6 | > 100 | 3.73 | 35.2 | 4.56 | > 100 | 6.85 | 64.9
